# In the supplement of paper PMC10307832:
# Tests used:
# Experiment in all cases: relative viability (nuclei count vs DMSO), 5 days (fraction); higher = more cells survive
# [1] = compound: C1CN(CCC1C(C2=CC3=C(C=C2)OCO3)(C4=CC5=C(C=C4)OCO5)O)C(=O)OC6=CC=C(C=C6)[N+](=O)[O-] [JZL-184]
# Procedure, shortened: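 Five library-drug doses, separated by factors of √10, were pinned into 1536-well plates holding lung cancer cell lines after an overnight stay at 37 °C. Cells were fixed, permeabilised and Hoechst-stained in one step after 5 days without medium change, then imaged at 4×. Viability compares treated-well with vehicle-well nuclei, counted in MetaXpress, as a median across plates. Passing plates had control CV below 25% and at least one doubling.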
# [2] = compound: C1CN(CCC1C(C2=CC3=C(C=C2)OCO3)(C4=CC5=C(C=C4)OCO5)O)C(=O)OC6=CC=C(C=C6)[N+](=O)[O-] [JZL-184] + Cc1nc(Nc2ncc(C(=O)Nc3c(C)cccc3Cl)s2)cc(N2CCN(CCO)CC2)n1 [Dasatinib] (partner 0.075 µM)
# Procedure, shortened: (§1)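 Each reported value is a median over duplicate plates. It expresses relative viability: treated-well nuclei count divided by vehicle-well nuclei count. Lung cancer cell lines in 1536-well plates were dosed by pin tool a day after seeding, alone with one drug or with a fixed anchor-drug dose plus five library-drug doses (not always all listed) in √10 steps, and nuclei were counted after 5 days.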
# [3] = compound: C1CN(CCC1C(C2=CC3=C(C=C2)OCO3)(C4=CC5=C(C=C4)OCO5)O)C(=O)OC6=CC=C(C=C6)[N+](=O)[O-] [JZL-184] + Cc1nc(NC(=O)N2CCC[C@H]2C(N)=O)sc1-c1ccnc(C(C)(C)C(F)(F)F)c1 [Alpelisib] (partner 2 µM)
# Procedure, shortened: as §1
# [4] = compound: C1CN(CCC1C(C2=CC3=C(C=C2)OCO3)(C4=CC5=C(C=C4)OCO5)O)C(=O)OC6=CC=C(C=C6)[N+](=O)[O-] [JZL-184] + O=C(c1cc(Cc2n[nH]c(=O)c3ccccc23)ccc1F)N1CCN(C(=O)C2CC2)CC1 [Olaparib] (partner 8 µM)
# Procedure, shortened: as §1
# [5] = compound: C1CN(CCC1C(C2=CC3=C(C=C2)OCO3)(C4=CC5=C(C=C4)OCO5)O)C(=O)OC6=CC=C(C=C6)[N+](=O)[O-] [JZL-184] + C[C@@H](Oc1cc(-c2cnn(C3CCNCC3)c2)cnc1N)c1c(Cl)ccc(F)c1Cl [Crizotinib] (partner 1 µM)
# Procedure, shortened: as §1
Cell Line,relative viability ([1]; 0.04 µM),relative viability ([1]; 0.4 µM),relative viability ([1]; 1.265 µM),relative viability ([1]; 4 µM),relative viability ([2]; first compound 0.04 µM),relative viability ([2]; first compound 0.4 µM),relative viability ([2]; first compound 1.265 µM),relative viability ([2]; first compound 4 µM),relative viability ([3]; first compound 0.04 µM),relative viability ([3]; first compound 0.4 µM),relative viability ([3]; first compound 1.265 µM),relative viability ([3]; first compound 4 µM),relative viability ([4]; first compound 0.04 µM),relative viability ([4]; first compound 0.4 µM),relative viability ([4]; first compound 1.265 µM),relative viability ([4]; first compound 4 µM),relative viability ([5]; first compound 0.04 µM),relative viability ([5]; first compound 0.4 µM),relative viability ([5]; first compound 1.265 µM),relative viability ([5]; first compound 4 µM)
LU99A,1.01,0.774,1.18,0.968,0.717,0.443,0.525,0.541,0.587,0.535,0.538,0.486,0.256,0.277,0.254,0.225,0.657,0.529,0.622,0.63
LXF-289,1.08,0.926,1.02,0.959,0.173,0.281,0.207,0.307,0.977,1.05,1.06,0.951,1.16,1.06,1.01,0.975,0.813,0.819,0.765,0.75
NCI-H23,1.14,0.767,1.18,0.998,0.896,0.81,0.864,0.751,0.876,0.631,0.587,0.646,0.388,–,0.303,0.366,0.611,0.444,0.521,0.43
NCI-H322M,0.951,0.926,0.982,0.774,0.252,0.265,0.264,0.252,0.656,0.777,0.749,0.775,0.785,0.591,0.774,0.733,0.965,0.971,0.886,0.825
NCI-H358,1,0.824,0.994,0.916,0.167,0.134,0.15,0.155,1.05,0.803,0.973,0.788,0.804,0.637,0.599,0.592,0.748,0.438,0.595,0.49
NCI-H441,1.14,0.814,1.02,0.998,0.584,0.546,0.606,0.524,1.11,0.634,0.755,1.09,0.714,0.473,0.659,0.463,0.767,0.54,0.793,0.58
NCI-H460,1.06,0.884,0.974,0.975,0.62,0.394,0.553,0.503,0.643,0.465,0.47,0.401,0.337,0.427,0.458,0.394,0.993,0.81,0.839,0.912
NCI-H520,0.793,0.924,1.07,0.93,0.188,0.2,0.178,0.168,1.02,0.965,1.02,0.897,0.39,0.369,0.351,0.304,0.813,0.707,0.907,0.665
NCI-H596,1.21,0.875,1.01,0.932,0.739,0.437,0.658,0.566,0.501,0.487,0.553,0.37,0.669,0.728,0.721,0.753,1.19,0.955,1.03,1.06
NCI-H647,1.04,0.945,1.06,0.887,0.177,0.174,0.283,0.145,1.15,0.957,1.07,1.2,0.654,0.481,0.471,0.564,1.36,0.956,1,1.02
NCI-H650,1.03,0.762,1.1,0.979,0.439,0.392,0.472,0.441,1.23,0.951,1.16,1.1,0.427,0.369,0.438,0.381,0.872,0.73,0.814,0.685
NCI-H661,1.02,0.919,0.943,0.999,0.95,0.851,0.907,0.867,0.453,0.483,0.707,0.717,0.825,0.712,0.731,0.748,0.933,–,0.935,0.928
NCI-H727,0.949,0.793,1.09,0.781,0.37,0.443,0.398,0.334,0.539,0.627,0.542,0.629,0.661,0.723,0.747,0.552,0.876,0.728,0.903,0.864
NCI-H838,1.11,1.03,1.04,0.984,0.286,0.307,0.289,0.3,1.08,1.09,1.03,0.957,0.994,0.737,0.766,0.722,1.05,0.885,0.941,0.76
NCI-H1355,0.984,0.927,1.06,0.946,0.723,0.662,0.783,0.672,0.774,0.826,0.828,0.81,0.775,0.708,0.78,0.707,1.06,1.01,1.22,0.925
